One assay has as its system CDK1. Conditions: Table 1, known inhibitors; roscovitine value for racemic mixture; cited from earlier work.
The test system of assay [1] is chronic myelogenous leukemia. Conditions: cases of chronic myelogenous leukemia; cited from earlier work.
The target of the next assay is p34^cdc2/cyclinB. The assay can be described thus: p34cdc2/cyclin B kinase assay (histone H1 phosphorylation, [γ-32P] ATP). The class given is biochemical, starfish (Marthasterias glacialis). Here is the method: J. Biochem., 243, (1997), 527-536). […] After 10 min. incubation at 30°C, 25 μl aliquots of supernatant were spotted onto 2.5 x 3 cm pieces of Whatman P81 phosphocellulose paper, and after 20 sec., the filters were washed five times (for at least 5 min. each time) in a solution of 10 ml phosphoric acid/liter of water. The wet filters were transferred into 6 ml plastic scintillation vials, 5 ml ACS (Amersham) scintillation fluid was added and the radioactivity measured in a Packard scintillation counter.

The next assay has as its system cdc25. The assay can be described thus: cdc25 inhibition (specificity panel). The class given is biochemical. The conditions noted are these: Table 3.
Another assay deals with CDK4/ cyclin D1 (Homo sapiens, UniProt P11802). The assay can be described thus: kinase inhibition selectivity, CDK4/cyclin D1. The class given is biochemical.
The target of a further assay is CDK5/ p35 (Homo sapiens, UniProt Q00535). The assay can be described thus: kinase inhibition selectivity, CDK5/p35. The class given is biochemical.
For the next assay, the target named is CDK2/ cyclin A (Homo sapiens, UniProt P24941). The assay can be described thus: biochemical.
A further assay deals with CDK2/ cyclin E (Homo sapiens, UniProt P24941). The assay can be described thus: biochemical.
The next assay concerns PKG. Conditions: Table 1, known inhibitors; cited from earlier work.
Assay [2] has as its system PKC. Conditions: Table 1, known inhibitors; cited from earlier work.
The next assay has as its system CDK1/cyclin B. The assay can be described thus: histone H1 phosphorylation as a measure for CDK1/cyclin B activity in cell culture. Type of assay: cell-based, human. Conditions: after 24 h incubation of MCF-7 mammary carcinoma cells. From the text:
An inhibition of p34^cdc2-kinase by indigoid bisindole derivatives is not described in the prior art.

The subject of assay [3] is MCF-7 mammary carcinoma cells. The assay can be described thus: cell cycle arrest in cell culture. The class given is cell-based, human. As for the experimental part:
(§1) An inhibition of p34^cdc2-kinase by indigoid bisindole derivatives is not described in the prior art. […] In concentrations ≥ 5 µM, an additional arrest at G2/M-phase of the cell cycle became apparent.

The test system of assay [4] is MCF-7 mammary carcinoma cells. Kind of assay: growth inhibition in cell culture. Conditions: Homo sapiens, MCF7, 72 h; after 3 days incubation; 50% growth inhibition as compared to vehicle control. Type of assay: cell-based. Here is the method: as §1
Assay [5] relates to MCF-7 mammary carcinoma cells. The assay can be described thus: induction of apoptotic cell death in cell culture. Type of assay: cell-based, human. As for the experimental part:
as §1

Assay [6] deals with PKC. Kind of assay: PKC inhibition (specificity panel). Conditions: Ca2+-dependent protein kinase, Table 3. Type of assay: biochemical.
For assay [7] the following is noted: compared with indirubine; cited from earlier work.
The subject of a further assay is MAPK. The conditions noted are these: Table 1, known inhibitors; cited from earlier work.
For assay [8], the target named is epidermal growth factor receptor tyrosine kinase (Homo sapiens, UniProt P00533). Conditions: Table 1, known inhibitors; read-out: IC50 Tyrosine-kinase (EGF-R); cited from earlier work.
Setting [9] is: cdc2 kinase, Table 3, read-out: IC50 cdc2.
Where [10] appears, read: calculated from dose response curves, Table 4, read-out: IC50 CDK1/ cyclin B.
Setting [11] is: calculated from dose response curves, Table 4, read-out: IC50 CDK5/ p35.
The mark [12] stands for this setting: cells arrested by serum deprivation, treatment for 24 h in serum containing medium.

Like-named read-outs stand apart in the source and are kept apart here. Bounds are passed on as bounds.

Sequence of CDK5/ p35 (Q00535 whole entry, species assumed): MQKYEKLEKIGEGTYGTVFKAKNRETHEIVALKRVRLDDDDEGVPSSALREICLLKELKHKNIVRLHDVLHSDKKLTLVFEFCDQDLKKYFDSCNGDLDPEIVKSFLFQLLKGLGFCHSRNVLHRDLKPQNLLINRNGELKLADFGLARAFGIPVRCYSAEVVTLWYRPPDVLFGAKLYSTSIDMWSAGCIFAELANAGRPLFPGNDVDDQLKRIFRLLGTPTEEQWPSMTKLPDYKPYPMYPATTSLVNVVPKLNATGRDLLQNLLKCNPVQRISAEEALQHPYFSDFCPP
Sequence of CDK5/ p35 (Q15078 whole entry partner, species assumed): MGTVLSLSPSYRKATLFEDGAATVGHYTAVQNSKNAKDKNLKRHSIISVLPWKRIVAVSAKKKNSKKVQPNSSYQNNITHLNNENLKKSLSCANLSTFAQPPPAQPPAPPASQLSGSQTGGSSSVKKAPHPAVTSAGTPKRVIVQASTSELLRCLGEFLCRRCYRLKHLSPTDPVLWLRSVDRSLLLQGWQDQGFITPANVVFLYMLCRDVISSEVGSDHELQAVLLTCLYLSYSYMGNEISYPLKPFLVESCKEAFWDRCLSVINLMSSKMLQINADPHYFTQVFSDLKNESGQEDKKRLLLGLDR
Sequence of CDK4/ cyclin D1 (P11802 whole entry, species assumed): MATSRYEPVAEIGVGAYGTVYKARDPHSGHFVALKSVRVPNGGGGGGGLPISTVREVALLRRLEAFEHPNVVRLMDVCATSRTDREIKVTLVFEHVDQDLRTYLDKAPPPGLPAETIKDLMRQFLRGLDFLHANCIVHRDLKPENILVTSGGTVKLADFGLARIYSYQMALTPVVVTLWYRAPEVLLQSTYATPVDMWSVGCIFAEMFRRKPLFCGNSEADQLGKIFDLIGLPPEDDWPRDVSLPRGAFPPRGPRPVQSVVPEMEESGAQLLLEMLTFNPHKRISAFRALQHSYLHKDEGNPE
Sequence of CDK4/ cyclin D1 (P24385 whole entry partner, species assumed): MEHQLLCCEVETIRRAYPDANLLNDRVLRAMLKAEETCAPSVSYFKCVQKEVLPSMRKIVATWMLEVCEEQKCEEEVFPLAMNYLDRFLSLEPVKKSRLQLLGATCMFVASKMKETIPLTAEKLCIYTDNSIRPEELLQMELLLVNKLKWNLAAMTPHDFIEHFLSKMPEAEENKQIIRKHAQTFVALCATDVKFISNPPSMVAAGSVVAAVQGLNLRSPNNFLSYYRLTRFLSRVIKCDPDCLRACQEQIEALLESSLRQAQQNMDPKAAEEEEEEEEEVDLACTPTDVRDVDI
Sequence of epidermal growth factor receptor tyrosine kinase (P00533 25-1210): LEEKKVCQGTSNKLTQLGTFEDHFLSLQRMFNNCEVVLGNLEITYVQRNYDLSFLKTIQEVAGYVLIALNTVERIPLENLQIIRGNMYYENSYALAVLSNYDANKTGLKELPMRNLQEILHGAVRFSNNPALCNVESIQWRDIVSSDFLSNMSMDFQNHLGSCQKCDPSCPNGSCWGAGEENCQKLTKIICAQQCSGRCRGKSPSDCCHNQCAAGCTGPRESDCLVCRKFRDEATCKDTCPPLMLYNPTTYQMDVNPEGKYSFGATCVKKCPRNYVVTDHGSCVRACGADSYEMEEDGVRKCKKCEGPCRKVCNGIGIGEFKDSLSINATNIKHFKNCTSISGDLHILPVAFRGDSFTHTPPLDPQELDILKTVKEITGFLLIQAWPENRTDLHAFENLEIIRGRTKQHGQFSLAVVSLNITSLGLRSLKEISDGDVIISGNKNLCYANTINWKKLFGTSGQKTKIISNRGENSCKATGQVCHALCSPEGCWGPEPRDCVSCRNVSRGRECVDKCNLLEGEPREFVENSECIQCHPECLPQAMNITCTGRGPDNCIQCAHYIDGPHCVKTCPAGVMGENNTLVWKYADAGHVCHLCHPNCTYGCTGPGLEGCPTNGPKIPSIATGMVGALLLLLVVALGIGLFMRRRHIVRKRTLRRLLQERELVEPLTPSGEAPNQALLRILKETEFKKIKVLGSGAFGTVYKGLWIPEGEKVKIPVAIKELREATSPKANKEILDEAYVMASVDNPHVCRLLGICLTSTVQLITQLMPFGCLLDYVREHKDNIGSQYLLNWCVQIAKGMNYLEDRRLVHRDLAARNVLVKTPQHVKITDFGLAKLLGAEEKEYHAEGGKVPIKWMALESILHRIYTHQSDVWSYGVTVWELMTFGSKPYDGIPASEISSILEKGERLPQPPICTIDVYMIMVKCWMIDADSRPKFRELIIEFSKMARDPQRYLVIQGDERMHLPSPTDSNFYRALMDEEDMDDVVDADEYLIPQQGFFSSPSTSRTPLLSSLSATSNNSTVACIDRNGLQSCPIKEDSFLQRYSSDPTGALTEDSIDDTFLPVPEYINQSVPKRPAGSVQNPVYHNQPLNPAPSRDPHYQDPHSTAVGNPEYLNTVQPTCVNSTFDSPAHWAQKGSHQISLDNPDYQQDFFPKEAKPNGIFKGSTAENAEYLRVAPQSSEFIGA

As for `Cc1c2ccncc2c(C)c2c1[nH]c1ccc(O)cc12` [9-Hydroxy-ellipticine, 9-Hydroxyellipticin], the IC50 in the assay on CDK1 is around 1 µM.

As for `CN1C(=O)/C(=C2/C(=O)Nc3ccccc32)c2ccccc21` [meisoindigo, N-Methyl-isoindigo], in [1], the “complete and partial remission rate” value is reported as 81.3%; the total response rate is 90.1%.

For `O=C1Nc2ccc(Br)cc2/C1=C1/Nc2ccc(Br)cc2C1=O` [Example 9, 5,5'-Dibromoindirubine], the IC50 at p34^cdc2/cyclinB (setting [9]) stood at 7 µM.

`Cc1ccc2c(c1)C(=C1Nc3ccccc3C1=O)C(=O)N2` [Example 6, 5-Methylindirubine]: the IC50 on p34^cdc2/cyclinB (setting [9]) was 0.8 µM; in the assay on cdc25, 60 µM.

`O=C1Nc2ccc([N+](=O)[O-])cc2/C1=C1/Nc2ccccc2C1=O` [Example 7, 5-Nitroindirubine]: the IC50 on p34^cdc2/cyclinB (setting [9]) stood at 2.2 µM; in the assay on cdc25 it was 60 µM.

On to `O=C1Nc2ccccc2/C1=C1/Nc2ccc(Br)cc2C1=O` [Example 8, 5'-Bromoindirubine], for which the IC50 at p34^cdc2/cyclinB (setting [9]) was 6.5 µM.

`O=C1Nc2ccc(F)cc2/C1=C1/Nc2ccccc2C1=O` [Example 5, 5-Fluoroindirubine]: the IC50 on p34^cdc2/cyclinB (setting [9]) amounted to 2 µM; with cdc25, 70 µM.

In the case of `O=C1/C(=C2\Nc3ccccc3C2=O)Nc2ccccc21` [indigo], the IC50 at p34^cdc2/cyclinB (setting [10]) is above 1000 µM; on CDK4/ cyclin D1 (calculated from dose response curves, Table 4, read-out: IC50 CDK4/ cyclin D1) it was above 100 µM; at CDK5/ p35 (setting [11]) it was above 100 µM; on CDK2/ cyclin A it was 70 µM; on CDK2/ cyclin E, above 1000 µM.

In the case of `CN[C@@H]1C[C@H]2O[C@@](C)([C@@H]1OC)n1c3ccccc3c3c4c(c5c6ccccc6n2c5c31)C(=O)NC4` [Staurosporine], in the assay with PKG, the IC50 is 0.009 µM.

Consider `CN1CC[C@H](c2c(O)cc(O)c3c(=O)cc(-c4ccccc4Cl)oc23)[C@H](O)C1` [Flavopiridol], for which the IC50 with PKG is 6 µM.

In the case of `CN[C@@H]1C[C@H]2O[C@@](C)([C@@H]1OC)n1c3ccccc3c3c4c(c5c6ccccc6n2c5c31)C(=O)N[C@@H]4O` [UCN-01], the results for the IC50 in the assay on CDK1 and in the assay on PKC [2] were 0.031 µM and […], respectively.

On to `O=C1Nc2ccccc2C1=C1Nc2ccccc2C1=NO` [Example 10, Indirubine-3'-oxime], for which the “content of cyclin B complex” value in the assay with CDK1/cyclin B is on record as “significantly reduced”. Further, the “histone H1 phosphorylation as a measure for CDK1/cyclin B activity” value with CDK1/cyclin B was “inhibit histone H1 phosphorylation”. In addition, the “arrest in G1-phase of the cell cycle” value in assay [3] (setting [12]) was “low micromolar concentrations”. Further, the “concentration at which additional arrest at G2/M-phase of the cell cycle became apparent” value in [3] (setting [12]) is recorded as at least 5 µM. Also, the “concentration giving significant increase of G2/M arrested cells” value in [3] (cells arrested in G2/M by Nocodazole treatment, after release of the block) is reported as at least 5 µM. Also, the values for the IC50 (in assay [4]; on CDK2/ cyclin A; against CDK2/ cyclin E) were 3.3 ± 0.7 µM, 0.44 µM and 0.25 µM, respectively. Moreover, the apoptotic cell death entry in assay [5] is given as “induction of apoptotic cell death was observed”.

Take `O=C1Nc2ccc(Cl)cc2/C1=C1/Nc2ccccc2C1=O` [Example 4, 5-Chloroindirubine]: the IC50 at p34^cdc2/cyclinB (setting [10]) is 0.4 µM; on p34^cdc2/cyclinB (setting [9]), 0.4 µM; in the assay with cdc25, 55 µM; on CDK4/ cyclin D1, 6.5 µM; against CDK5/ p35, 0.8 µM; against CDK2/ cyclin A, 0.75 µM. The compound also had an IC50 on CDK2/ cyclin E of 0.55 µM.

Turning to `O=C1Nc2ccc(I)cc2/C1=C1/Nc2ccccc2C1=O` [Example 2, 5-Iodoindirubine], the IC50 is 0.3 µM on p34^cdc2/cyclinB (setting [9]) and 130 µM in the assay on cdc25. In addition, the “IC50 PKC” value with PKC [6] was “no Effect”. The antitumor activity result in assay [7] is reported as “superior to that of indirubine”.

Consider `O=C1Nc2ccc(Br)cc2/C1=C1/Nc2ccccc2C1=O` [Example 3, 5-Bromoindirubine], for which the figures for the IC50 at p34^cdc2/cyclinB (setting [9]) and with cdc25 were 0.35 µM and 32 µM, respectively.

On to `O=C1Nc2ccccc2/C1=C1\C(=O)Nc2ccccc21` [Example 12, Isoindigo], for which the IC50 on p34^cdc2/cyclinB (read-out: IC50-value for the p34^cdc2/cyclinB complex) stood at 80 µM.

As for `O=C1Nc2ccc(S(=O)(=O)O)cc2C1=C1Nc2ccccc2C1=O` [Example 11, Indirubine-5-sulfonic acid], the IC50 was 0.055 µM at p34^cdc2/cyclinB (setting [10]), 0.055 µM on p34^cdc2/cyclinB (setting [9]), 110 µM in the assay on cdc25 and 0.065 µM at CDK5/ p35 (setting [11]).

`COC(=O)C1(Cc2ccc(O)c(CC=C(C)C)c2)OC(=O)C(O)=C1c1ccc(O)cc1` (stereo not drawn) [Butyro-lactone-I, Butyrolactone-I]: the IC50 with CDK1 is […]; in the assay with MAPK, 94 µM; with PKC [2] it was 160 µM; in assay [8], above 590 µM.

Values taken from patent publication EP1079826B1, “USE OF INDIGOID BISINDOLE DERIVATIVES FOR THE MANUFACTURE OF A MEDICAMENT TO INHIBIT CYCLIN DEPENDENT KINASES” (CNRS, Centre National de la Recherche Scientifique, priority 1998, dated 1999).
